Data: US10986837B2, “Lactam solubility” (Conopco, Inc., priority 2015, dated 2021)

Columns and labels:
[1] = Lactam solubility in bio-surfactant solutions (48 h agitation, filtration, HPLC); format: physicochemical
Method: Bio-surfactant solutions at the levels shown in the results below were prepared for screening. The maximum level tested was dictated by the solubility of the surfactant in water. The following representative example uses 4-(4-chlorophenyl)-5-methylene-pyrrol-2-one.
Solid lactam was weighed into Whatman® Mini Uniprep sample vials, fitted with a 0.45 μm nylon filter (2.7 to 3.3 mg per vial). 50 μL of a solvent solution was placed into each sample vial, the vial capped and shaken briefly by hand to agitate the solid, then placed on a Thermo Labsystems Wellmix® plate shaker and continuously agitated for 48 hours. After this time, the excess solid in the vial was removed using the integral filter membrane and the resultant solution analysed by HPLC to determine the level of dissolved lactam.
Samples were analysed using an Agilent 1200® series HPLC fitted with a Hypersil Gold C18 column (15×2.1×3 μm), using isocratic elution with 60/40 methanol/water (+0.1% Formic Acid) at a flow rate of 0.4 mL/min, using a DAD detector at 285 nm. 4-(4-Chlorophenyl)-5-methylene-pyrrol-2-one has a retention time of ˜2.8 minutes.
Each test surfactant solution was tested in triplicate and the mean value of lactam in solution calculated. Values of solubility were quoted as the improvement in aqueous solubility vs water alone (i.e. mean level of lactam dissolved in water+solvent/mean level of lactam dissolved in water) to allow comparison between screens conducted on different days.

[2] = produced by Rhodococcus erythropolis grown on n-alkane; cited from earlier work
[3] = Additive Di-rhamnolipid R2, 0% in water (water alone)
[4] = Additive Di-rhamnolipid R2, 0.1% in water
[5] = Additive Di-rhamnolipid R2, 0.5% in water
[6] = Additive Di-rhamnolipid R2, 1% in water
[7] = Additive Di-rhamnolipid R2, 2% in water
[8] = Additive Mono-rhamnolipid R1, 0% in water (water alone)
[9] = Additive Mono-rhamnolipid R1, 0.1% in water
[10] = Additive Mono-rhamnolipid R1, 0.5% in water
[11] = Additive Mono-rhamnolipid R1, 1% in water
[12] = Additive Mono-rhamnolipid R1, 2% in water
[13] = Additive Mono-rhamnolipid R1, 4% in water

C=C1NC(=O)C=C1c1ccc(Cl)cc1 [4-(4-chlorophenyl)-5-methylene-pyrrol-2-one]
Mean Lactam Level in Solution [1, 3]: 2.7 ppm | Solubility Increase vs water alone [1, 3]: 1.0 | Mean Lactam Level in Solution [1, 4]: 15.2 ppm | Solubility Increase vs water alone [1, 4]: 5.7 | Mean Lactam Level in Solution [1, 5]: 42.6 ppm | Solubility Increase vs water alone [1, 5]: 15.9 | Mean Lactam Level in Solution [1, 6]: 77.5 ppm | Solubility Increase vs water alone [1, 6]: 28.9 | Mean Lactam Level in Solution [1, 7]: 139.6 ppm | Solubility Increase vs water alone [1, 7]: 52.1 | Mean Lactam Level in Solution [1, 8]: 2.7 ppm | Solubility Increase vs water alone [1, 8]: 1.0 | Mean Lactam Level in Solution [1, 9]: 10.9 ppm | Solubility Increase vs water alone [1, 9]: 4.1 | Mean Lactam Level in Solution [1, 10]: 39.3 ppm | Solubility Increase vs water alone [1, 10]: 14.7 | Mean Lactam Level in Solution [1, 11]: 75.3 ppm | Solubility Increase vs water alone [1, 11]: 28.1 | Mean Lactam Level in Solution [1, 12]: 149.7 ppm | Solubility Increase vs water alone [1, 12]: 55.9 | Mean Lactam Level in Solution [1, 13]: 194.8 ppm | Solubility Increase vs water alone [1, 13]: 72.7

Phosphatidylethanolamine
CMC [2]: 30 mg/L | interfacial tension between water and hexadecane [2]: less than 1 mN m^−1
